Several values for one entry are separate records, joined by “and”; a condition that tells them apart may be missing. Identical values can stand only once.
Experiments:
[1] = system: Klebsiella pneumoniae ST147; experiment: MIC determination, fixed ratio of sBLI to antibiotic (Examples 5-7); type: cell-based; conditions: Example 7; with MEM and AVI (fixed ratio); NDM-1 and KPC-2; caMHB, 29.4 μM Zn2+
Protocol: Antimicrobial susceptibility testing (AST) by broth microdilution (MIC determination) was performed according to The European Committee on Antimicrobial Susceptibility Testing (EUCAST) guidelines (see Reading guide for broth microdilution Version 5.0, 2024: https://www.eucast.org).
Sterile clear round bottom polystyrene (non-treated) 96-well microplates (Corning 3788) were used for making serial two-fold dilutions of the antibiotic and the sBLI in cation-adjusted Mueller Hinton II broth (caMHB; Thermo Scientific, T3462, containing 29.4 μM Zn^2+), across the columns of the microtiter plate (256-0.06 μg/mL; columns 1-12). The checkerboard plates were all made by keeping the sBLI at a fixed ratio relative to antibiotic (absolute concentrations of each, in μg/mL) to all wells containing sample in each plate. Additionally, a set of samples was included in each test plate, where the zinc chelator was added, at various fixed concentrations, of 16 μg/mL, 8 μg/mL and/or 4 μg/mL (as specified in each Example). All sample wells contained growth medium (caMHB), and inoculated bacteria at a final inoculum between 3-7×10^5 CFU/mL. […]

[2] = system: bacteria which rely on SBLs; conditions: with MEM; cited from earlier work
[3] = system: many strains of Acinetobacter baumannii; conditions: with MEM; cited from earlier work

**Q.** With CN(C[C@H](O)[C@@H](O)[C@H](O)[C@H](O)CO)C(=O)c1ccc(CN(Cc2ccccn2)Cc2ccccn2)nc1 [zinc chelator] as the compound, how does the “Synergy with the zinc chelator observed at concentration” value [1] read?
**A.** The value was 16 µg/mL and 8 µg/mL.

**Q.** What about the effect of combination [2] of the same compound?
**A.** The effect of combination was “no effect”.

**Q.** And the effect of combination [3]?
**A.** Its effect of combination is “poor effect”.

Source: US20260306526A1, “COMBINATION THERAPY FOR BACTERIAL INFECTIONS COMPRISING ZINC-CHELATOR, BETA-LACTAM ANTIBIOTIC AND SERINE BETA-LACTAMASE INHIBITOR” (priority 2023, published 2026)
